Values after ≈ are worked out from the molar mass of the structure shown. Like-named read-outs stand apart in the source and are kept apart here.
Legend:
Type in all cases: cell-based
E. coli. HH 33779 = assay: MIC in vitro, E. coli HH 33779; conditions: Escherichia coli
Entero. aerogenes = assay: MIC in vitro, Entero. aerogenes; conditions: Klebsiella aerogenes
K. pneumo. SK 4200 = assay: MIC in vitro, K. pneumo. SK 4200
Strep. pyog. C 203 = assay: MIC in vitro, Strep. pyog. C 203
Strep. faecalis HH 34358 = assay: MIC in vitro, Strep. faecalis HH 34358; conditions: Enterococcus faecalis, HH34358
Pseudomonas sp. HH 63 = assay: MIC in vitro, Pseudomonas sp. HH 63; conditions: SP.HH63
S. aureus HH 127 = assay: MIC in vitro, S. aureus HH 127; conditions: Staphylococcus aureus, HH127
[1] = E. coli. HH 33779, read-out: MIC

| MIC (Entero. aerogenes) [µg/mL] | MIC (K. pneumo. SK 4200) [µg/mL] | MIC (Strep. pyog. C 203) [µg/mL] | MIC (Strep. faecalis HH 34358) [µg/mL] | MIC (Pseudomonas sp. HH 63) [µg/mL] | MIC (S. aureus HH 127) [µg/mL] | MIC (E. coli. HH 33779; [1]) [µg/mL] | Structure (SMILES) | MIC (E. coli. HH 33779) [µg/mL] |
| --- | --- | --- | --- | --- | --- | --- | --- | --- |
| 1.6 (≈ 3.4 µM) | 0.8 (≈ 1.7 µM) | 0.1 (≈ 0.213 µM) | 25 (≈ 53.1 µM) | < 200 | 0.4 (≈ 0.85 µM) | 1.6 (≈ 3.4 µM) | Cn1nnnc1SCC1=C(C(=O)O)N2C(=O)C(NC(=O)CSC(F)(F)F)[C@H]2SC1 (stereo partly drawn) [II, 7-Trifluoromethylmercaptoacetamido-3-(1-methyl-tetrazol-5-ylthiomethyl)-3-cephem-4-carboxylic acid] | – |
| 50 (≈ 121 µM) | 0.8 (≈ 1.93 µM) | 0.1 (≈ 0.241 µM) | 25 (≈ 60.3 µM) | < 200 | 0.4 (≈ 0.965 µM) | 6.3 (≈ 15.2 µM) | CC(=O)OCC1=C(C(=O)O)N2C(=O)C(NC(=O)CSC(F)(F)F)C2SC1 (stereo not drawn) [I, 7-trifluoromethylmercaptoacetamidocephalosporanic acid] | – |

| Structure (SMILES) | MIC (Entero. aerogenes) [µg/mL] | MIC (K. pneumo. SK 4200) [µg/mL] | MIC (Strep. pyog. C 203) [µg/mL] | MIC (Strep. faecalis HH 34358) [µg/mL] | MIC (Pseudomonas sp. HH 63) [µg/mL] | MIC (S. aureus HH 127) [µg/mL] | MIC (E. coli. HH 33779; [1]) [µg/mL] | MIC (E. coli. HH 33779) [µg/mL] |
| --- | --- | --- | --- | --- | --- | --- | --- | --- |
| Cc1nnc(SCC2=C(C(=O)O)N3C(=O)C(NC(=O)CSC(F)(F)F)[C@H]3SC2)s1 (stereo partly drawn) [III, 7-trifluoromethylmercaptoacetamido-3-(5-methyl-1,3,4-thiadiazol-2-ylthiomethyl)-3-cephem-4-carboxylic acid] | 6.3 (≈ 12.9 µM) | 1.6 (≈ 3.29 µM) | 0.1 (≈ 0.206 µM) | 12.5 (≈ 25.7 µM) | < 200 | 0.4 (≈ 0.822 µM) | – | 3.1 (≈ 6.37 µM) |

Source: patent US3943131A, “Trifluoromethylmercaptoacetamidocephalosporins” (SmithKline Corporation, priority 1974, dated 1976)
